Source: patent publication US20260297095A1, “NOVEL PYRROLOTRIAZINE DERIVATIVE AND USE THEREOF” (Pelemed Co., Ltd., priority 2024, published 2026)

Columns and labels:
YES1 kinase = YES1 kinase (Homo sapiens, UniProt P07947); assay: YES1 kinase inhibition, ADP Glo assay (Promega); type: biochemical; settings: for inhibition at 0.01 µM: compound 10 nM, read-out: YES1 enzyme, % inhibition, 10 nM; for inhibition at 0.1 µM: compound 100 nM, read-out: YES1 enzyme, % inhibition, 100 nM
Method: To evaluate the inhibitory activity against YES1 kinase of the compound according to the present invention, ADP Glo assay (Promega) was used, and the following method was performed with reference to the Promega kinase enzyme system protocol. To proceed with the experiment, buffers A-F and compound dilution plates were required.
To prepare A.4X reaction buffer, 800 μl of 5X reaction buffer and 200 μl of distilled water were used. To prepare B.4X kinase buffer, 996.6 μl of A.4X reaction buffer, 2 μl of 0.1M DTT, and 3.2 μl of 2.5M MnCl2 were added and mixed. To prepare C.1X kinase buffer (containing 5% DMSO) used for compound dilution, 250 μl of B.4X kinase buffer, 700 μl of distilled water, and 50 μl of DMSO were added, so that the final DMSO concentration became 5%. Then, 10 mM compounds were diluted 100-fold to prepare 100 μM solutions, and then D.5X inhibitor solution was prepared so that the compound concentration became 5 uM. Using a 96-well plate, 5 μM compounds were 3-fold diluted using C.1X kinase buffer (containing 5% DMSO) to prepare compound plates with concentrations ranging from 0.25 μM to 5 μM. The resulting plates were stored at room temperature. To prepare E. 2.5X ATP/substrate mixture, 50 μl of B.4X kinase buffer, 50 μl of […], and 100 μl of substrate were mixed. To prepare F YES1 kinase enzyme solution, 35 μl of B.4X kinase buffer, 0.4 μl of YES1 enzyme, and 104.6 μl of distilled water were used. Once the diluted compound plates, ATP/substrate mixture, and YES1 kinase solution were all prepared, 3 μL each was transferred from the diluted compound plate to a luciferase 96-well white plate (Since the total volume of the ATP/substrate and YES1 kinase solution that reacts with the compound is 15 μL, the compounds were diluted 5-fold, making the final compound concentration 0.05 μM-1 μM). Then, 6 μL of F. YES1 Kinase Enzyme Solution was transferred to each well, pipetted 10 times to mix, and incubated at room temperature in a shaker for 10 minutes. Next, 6 μL of E. 2.5X ATP/Substrate Mixture was transferred to each well, pipetted 10 times to mix, and centrifuged at 12,000 rpm for 5 minutes. The plate was then incubated in a shaker at room temperature for 40 minutes. After that, 15 μL of ADP-Glo Reagent, dissolved at room temperature, was added to each well, pipetted 10 times, and incubated in a shaker at room temperature for 40 minutes. Finally, 30 μL of Kinase Detection Reagent, dissolved at room temperature, was added, pipetted 10 times, incubated in a shaker at room temperature for 30 minutes. Luminescence was measured using a luminescence plate reader. Then, the background value was subtracted from all measured values, and the YES1 kinase activity at compound concentrations of 1 nM, 10 nM, and 100 nM was calculated. The measured values were calculated as percentages using the average value of the negative control. Graphs were drawn using GraphPad Prism, and the enzyme activity was calculated as a percentage of YES1 kinase inhibition at compound concentrations of 1 nM, 10 nM, and 100 nM. IC50 values were obtained using Microsoft Excel.

[1] = tested on: KYSE-70 esophageal cancer cell line; assay: Cell growth inhibition of KYSE-70 (Sulforhodamine B); type: cell-based; settings: Homo sapiens; KYSE-70, 72 hours; read-out: KYSE70 GI50
Method: The cell line according to the present invention was selected as KYSE-70, an esophageal cancer cell line in which YES1 is amplified. The evaluation of cell growth inhibition was performed as follows.
KYSE-70 was cultured in RPMI-1640 (Capricorn) supplemented with 10% FBS (Cellgro). The cells were seeded 24 hours prior to compound treatment, into three 96-well F-bottom clear plates (Greiner), with 7,500 cells per well in 180 μL of medium. The 10 mM compound was diluted 100-fold in medium to prepare a 100 μM compound, which was then placed into a 96-well plate and further 3-fold diluted in medium to prepare a compound plate with concentrations ranging from 0.046 μM to 100 μM. 20 μL of each compound from the drug plate was added to the cell-seeded plates to achieve final concentrations of 0.0046 μM to 10 μM. At the same time, 50 μL of 33% trichloroacetic acid was injected into one plate and the plate was fixed by incubating at 4° C. This was referred to as the Do plate. Viable cells were measured 72 hours after compound treatment by injecting 50 μL of 33% trichloroacetic acid and incubating at 4° C. for more than 1 hour to fix the cells. This was referred to as the D3 plate. After the Do plate and D3 plates were washed 5 times with sterile water, 100 μL of 0.04% Sulforhodamine B solution in 1% acetic acid was added and reacted for 1 hour to stain the cells. After staining, the plates were washed 4 times with 1% acetic acid solution and completely dried. Then, the Sulforhodamine B bound to cellular proteins was completely dissolved with 10 mM Tris base solution (pH 10.5). The absorbance was measured at a wavelength of 510 nm using a microplate reader (TECAN, sunrise microplate reader). The analysis was performed using GraphPad Prism. The average absorbance of the Do plate was set to 0%, and the average absorbance of the negative control of the D3 plate was set to 100%, from which a graph was drawn and the GI50 values were calculated. Each test was performed twice.

YES1 kinase, sequence (P07947 whole entry): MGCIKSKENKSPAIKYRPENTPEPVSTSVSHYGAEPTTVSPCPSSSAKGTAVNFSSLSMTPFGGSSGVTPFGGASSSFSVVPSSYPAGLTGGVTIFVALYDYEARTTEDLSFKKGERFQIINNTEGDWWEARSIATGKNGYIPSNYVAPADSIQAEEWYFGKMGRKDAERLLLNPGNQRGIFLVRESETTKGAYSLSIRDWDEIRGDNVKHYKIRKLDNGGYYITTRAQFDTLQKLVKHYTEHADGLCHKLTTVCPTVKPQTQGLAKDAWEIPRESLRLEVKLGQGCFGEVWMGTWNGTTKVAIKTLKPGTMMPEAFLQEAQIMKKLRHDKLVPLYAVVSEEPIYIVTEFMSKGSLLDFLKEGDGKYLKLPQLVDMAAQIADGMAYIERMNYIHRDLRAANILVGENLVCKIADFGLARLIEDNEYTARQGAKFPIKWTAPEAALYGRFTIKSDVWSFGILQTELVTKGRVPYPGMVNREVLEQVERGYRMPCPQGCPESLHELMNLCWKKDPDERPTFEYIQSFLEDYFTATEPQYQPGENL

Compound	inhibition at 0.01 µM (YES1 kinase) [%]	inhibition at 0.1 µM (YES1 kinase) [%]	GI50 [1] [nM]
COc1cc(-c2cc(N3CC[C@@H](N(C)C)[C@H](F)C3)n3ncnc(N)c23)ccc1NC(=O)OC(C)(C)C [Example 32, tert-butyl (4-(4-amino-7-((3R,4R)-4-(dimethylamino)-3-fluoropiperidin-1-yl)pyrrolo[2,1-f][1,2,4]triazin-5-yl)-2-methoxyphenyl)carbamate]	51	82	–
COc1cc(-c2cc(N3C[C@H]4CN(C)C[C@H]4C3)n3ncnc(N)c23)ccc1NC(=O)OC(C)(C)C [Example 34, tert-butyl (4-(4-amino-7-((3aR,6aS)-5-methylhexahydropyrrolo[3,4-c]pyrrol-2(1H)-yl)pyrrolo[2,1-f][1,2,4]triazin-5-yl)-2-methoxyphenyl)carbamate]	37	74	–
COc1cc(-c2c(C)c(N3CCC(N)CC3)n3ncnc(N)c23)ccc1NC(=O)OC(C)(C)CF [Example 60, 1-fluoro-2-methylpropan-2-yl (4-(4-amino-7-(4-aminopiperidin-1-yl)-6-methylpyrrolo[2,1-f][1,2,4]triazin-5-yl)-2-methoxyphenyl)carbamate]	–	–	≤ 100
CNC1CCN(c2c(C)c(-c3ccc(NC(=O)OC(C)(C)CF)c(OC)c3)c3c(N)ncnn23)CC1 [Example 61, 1-fluoro-2-methylpropan-2-yl (4-(4-amino-6-methyl-7-(4-(methylamino)piperidin-1-yl)pyrrolo[2,1-f][1,2,4]triazin-5-yl)-2-methoxyphenyl)carbamate]	–	–	≤ 100
COc1cc(-c2c(C)c(N3CCC(N(C)C)CC3)n3ncnc(N)c23)ccc1NC(=O)OC(C)(C)CF [Example 62, 1-fluoro-2-methylpropan-2-yl (4-(4-amino-7-(4-(dimethylamino)piperidin-1-yl)-6-methylpyrrolo[2,1-f][1,2,4]triazin-5-yl)-2-methoxyphenyl)carbamate]	–	–	≤ 100
CNCCC1CCN(c2c(C)c(-c3ccc(NC(=O)OC(C)(C)CF)c(OC)c3)c3c(N)ncnn23)CC1 [Example 63, 1-fluoro-2-methylpropan-2-yl (4-(4-amino-6-methyl-7-(4-(2-(methylamino)ethyl)piperidin-1-yl)pyrrolo[2,1-f][1,2,4]triazin-5-yl)-2-methoxyphenyl)carbamate]	–	–	≤ 100
CNC1CCN(CCc2c(C)c(-c3ccc(NC(=O)OC(C)(C)CF)c(OC)c3)c3c(N)ncnn23)CC1 [Example 64, 1-fluoro-2-methylpropan-2-yl (4-(4-amino-6-methyl-7-(2-(4-(methylamino)piperidin-1-yl)ethyl)pyrrolo[2,1-f][1,2,4]triazin-5-yl)-2-methoxyphenyl)carbamate]	–	–	≤ 100
CNCCC1CCN(c2cc(-c3ccc(NC(=O)OC(C)(C)CF)c(OC)c3)c3c(N)ncnn23)CC1 [Example 66, 1-fluoro-2-methylpropan-2-yl (4-(4-amino-7-(4-(2-(methylamino)ethyl)piperidin-1-yl)pyrrolo[2,1-f][1,2,4]triazin-5-yl)-2-methoxyphenyl)carbamate]	–	–	≤ 100
CNC1CCN(CCc2cc(-c3ccc(NC(=O)OC(C)(C)CF)c(OC)c3)c3c(N)ncnn23)CC1 [Example 67, 1-fluoro-2-methylpropan-2-yl (4-(4-amino-7-(2-(4-(methylamino)piperidin-1-yl)ethyl)pyrrolo[2,1-f][1,2,4]triazin-5-yl)-2-methoxyphenyl)carbamate]	–	–	100 to 1000
COc1cc(-c2cc(CCN3CCC(N)CC3)n3ncnc(N)c23)ccc1NC(=O)OC(C)(C)CF [Example 68, 1-fluoro-2-methylpropan-2-yl (4-(4-amino-7-(2-(4-aminopiperidin-1-yl)ethyl)pyrrolo[2,1-f][1,2,4]triazin-5-yl)-2-methoxyphenyl)carbamate]	–	–	≤ 100
COc1cc(-c2cc(CCN3CCC(N(C)C)CC3)n3ncnc(N)c23)ccc1NC(=O)OC(C)(C)CF [Example 69, 1-fluoro-2-methylpropan-2-yl (4-(4-amino-7-(2-(4-(dimethylamino)piperidin-1-yl)ethyl)pyrrolo[2,1-f][1,2,4]triazin-5-yl)-2-methoxyphenyl)carbamate]	–	–	≤ 100
CC1(OC(=O)Nc2ccc(-c3cc(N4CCC(N)CC4)n4ncnc(N)c34)c3c2OCO3)CC1 [Example 70, 1-methylcyclopropyl (7-(4-amino-7-(4-aminopiperidin-1-yl)pyrrolo[2,1-f][1,2,4]triazin-5-yl)benzo[d][1,3]dioxol-4-yl)carbamate]	–	–	100 to 1000
COc1cc(-c2cc(N3CCC(N)CC3)n3ncnc(N)c23)ccc1NC(=O)OC1(C)CC1 [Example 71, 1-methylcyclopropyl (4-(4-amino-7-(4-aminopiperidin-1-yl)pyrrolo[2,1-f][1,2,4]triazin-5-yl)-2-methoxyphenyl)carbamate]	–	–	≤ 100
COc1cc(-c2cc(N3CCC(N)CC3)n3ncnc(N)c23)ccc1NC(=O)OC(C)(C)C(F)(F)F [Example 72, 1,1,1-trifluoro-2-methylpropan-2-yl (4-(4-amino-7-(4-aminopiperidin-1-yl)pyrrolo[2,1-f][1,2,4]triazin-5-yl)-2-methoxyphenyl)carbamate]	–	–	100 to 1000
CC(C)(C)OC(=O)Nc1ccc(-c2cc(N3CCC(N)CC3)n3ncnc(N)c23)c2c1OCO2 [Example 73, tert-butyl (7-(4-amino-7-(4-aminopiperidin-1-yl)pyrrolo[2,1-f][1,2,4]triazin-5-yl)benzo[d][1,3]dioxol-4-yl)carbamate]	–	–	≤ 100
CNC1CCN(c2c(C)c(-c3ccc(NC(=O)OC(C)(C)C)c(OC)c3)c3c(N)ncnn23)CC1 [Example 75, tert-butyl (4-(4-amino-6-methyl-7-(4-(methylamino)piperidin-1-yl)pyrrolo[2,1-f][1,2,4]triazin-5-yl)-2-methoxyphenyl)carbamate]	–	–	≤ 100
COc1cc(-c2c(C)c(N3CCC(N(C)C)CC3)n3ncnc(N)c23)ccc1NC(=O)OC(C)(C)C [Example 76, tert-butyl (4-(4-amino-7-(4-(dimethylamino)piperidin-1-yl)-6-methylpyrrolo[2,1-f][1,2,4]triazin-5-yl)-2-methoxyphenyl)carbamate]	–	–	≤ 100
CNCCC1CCN(c2c(C)c(-c3ccc(NC(=O)OC(C)(C)C)c(OC)c3)c3c(N)ncnn23)CC1 [Example 77, tert-butyl (4-(4-amino-6-methyl-7-(4-(2-(methylamino)ethyl)piperidin-1-yl)pyrrolo[2,1-f][1,2,4]triazin-5-yl)-2-methoxyphenyl)carbamate]	–	–	100 to 1000
COc1cc(-c2cc(N3CCC(N)C4(CC4)C3)n3ncnc(N)c23)ccc1NC(=O)OC(C)(C)C (stereo not drawn) [Example 80, tert-butyl (4-(4-amino-7-(8-amino-5-azaspiro[2.5]octan-5-yl)pyrrolo[2,1-f][1,2,4]triazin-5-yl)-2-methoxyphenyl)carbamate]	–	–	100 to 1000
